Results from PubChem BioAssay (NCI).
Several values for one entry are separate records, joined by “and”; a condition that tells them apart may be missing. Equal values may be shown once.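 Growth conditions: 96-well plates. Treatment: test compound, 48 hours, 5 concentrations. Analysis: linear interpolation between bracketing concentrations; unreached endpoints set to highest concentration. GI50 marks 50% less growth. TGI is the concentration that stops growth completely.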 Where a SMILES comes first, the peptide text is derived from it. [ ]: non-standard residue; d: D form. 2Nal = N[CH](Cc1ccc2ccccc2c1)C(=O)O

Columns and labels:
Test in all cases: NCI tumour cell line growth inhibition, 48 h
UACC-257 melanoma = system: UACC-257 melanoma
MDA-MB-435 = system: MDA-MB-435
HOP-62 NSCLC = system: HOP-62 NSCLC
M14 melanoma = system: M14 melanoma
U251 CNS = system: U251 CNS
SNB-19 CNS = system: SNB-19 CNS
OVCAR-3 ovarian = system: OVCAR-3 ovarian
A549 NSCLC = system: A549 NSCLC
SN12C renal = system: SN12C renal
RPMI-8226 leukemia = system: RPMI-8226 leukemia

Structure (SMILES) | GI50 (UACC-257 melanoma) [µM] | TGI (UACC-257 melanoma) [µM] | GI50 (MDA-MB-435) [µM] | TGI (MDA-MB-435) [µM] | GI50 (HOP-62 NSCLC) [µM] | TGI (HOP-62 NSCLC) | GI50 (M14 melanoma) [µM] | TGI (M14 melanoma) [µM] | GI50 (U251 CNS) [µM] | TGI (U251 CNS) | GI50 (SNB-19 CNS) [µM] | TGI (SNB-19 CNS) [µM] | GI50 (OVCAR-3 ovarian) [µM] | TGI (OVCAR-3 ovarian) | GI50 (A549 NSCLC) [µM] | TGI (A549 NSCLC) | GI50 (SN12C renal) [µM] | TGI (SN12C renal) [µM] | GI50 (RPMI-8226 leukemia) [µM] | TGI (RPMI-8226 leukemia)
O=C1c2cccc3c(N4CCN(c5ccc6c7c(cccc57)C(=O)N(CCN5CCNCC5)C6=O)CC4)ccc(c23)C(=O)N1CCN1CCNCC1 | 19.5 | 37.9 | 13.2 | 34.2 | 7.96 | 27.7 µM | 15 | 37.2 | 16.8 | 35.7 µM | 16.1 | 61.6 | 20.3 | 42.1 µM | 16.3 | 35.6 µM | 7.46 | 23.2 | 2.45 | 8.55 µM
N#CC1=C(N)Oc2c(sc3c(F)cccc23)C1c1ccc([N+](=O)[O-])cc1 (stereo not drawn) | 0.863 | 2.9 | 0.0272 | 0.0848 | 0.228 | 1.79 µM | 0.111 | 0.645 | 0.153 | 1.21 µM | 0.241 | 1.51 | 0.185 | 1.06 µM | 0.214 | 2.37 µM | 0.276 | 1.31 | 0.215 | 1.45 µM
C#C[C@]1(O)CC[C@H]2[C@@H]3CC=C4c5nc(Nc6ccc(OC)cc6OC)sc5CC[C@]4(C)[C@H]3CC[C@@]21C | 1.57 | 4.99 | 1.76 | 4.39 | 1.93 | 7.37 µM | 1.37 | 3.53 | 0.77 | 4.09 µM | 1.75 | 10.7 | 1.58 | 3.74 µM | 2.68 | 43.9 µM | 3.36 | 19.2 | 0.248 | 0.804 µM
C/C=C(/C)C(=O)OC1C=C(CO)C(=O)C(OC(=O)/C(C)=C\C)C1C(C)C (stereo not drawn) | 1.28 | 2.65 | 0.95 | 2.33 | 2.03 | 3.73 µM | 0.795 | 2.26 | 0.708 | 2.03 µM | 1.46 | 2.85 | 0.48 | 1.66 µM | 1.45 | 2.94 µM | 0.546 | 1.59 | 0.337 | 1.37 µM
O=C(c1cccs1)c1c(C(F)(F)F)n([O-])c2cc(F)c(F)cc2[n+]1=O | 3.11 | 6.79 | 2.62 | 5.28 | 3.77 | 6.21 µM | 2.48 | 6.6 | 1.02 | 2.72 µM | 6.01 | 8.76 | 1.66 | 4.14 µM | 6.16 | 12.5 µM | 1.38 | 3.59 | 0.501 | 3.51 µM
CS(=O)(=O)c1ccc(C(F)(F)F)cc1NC(=O)Nc1cnc(Oc2ccc(-c3cc(Cl)cnc3N)cc2)nc1 | 3.07 | 11.5 | 2.23 | 5.79 | 3.27 | 12.5 µM | 2.02 | 4.8 | 2.56 | 12.3 µM | 2.8 | 34 | 2.08 | 4.67 µM | 3.07 | > 32.1 µM | 2.25 | 5.26 | 2.33 | 6.53 µM
N#Cc1cccc(Nc2nccc(-c3cnn4ncccc34)n2)c1 | 0.00594 | 0.0154 | 0.00628 | 0.0239 | 0.00749 |  | 0.00525 | 0.0125 | 0.00552 | > 25 µM | 0.00702 | > 25 | 0.00541 | 0.015 µM | 0.00729 | > 25 µM | 0.00674 | > 25 | 0.00763 | 0.0212 µM
COCCOC(C)C(/C=N/NC(N)=S)=N/NC(N)=S (stereo not drawn) | 0.0232 | > 100 | > 100 | > 100 | > 100 | > 100 µM | 0.0643 | > 100 | > 100 | > 100 µM | > 100 | > 100 | 0.0252 |  | > 100 | > 100 µM | > 100 | > 100 | 0.0725 | > 100 µM
Cc1cc(NC(=O)CCc2ccc(N3C(N)=NC(N)=NC3(C)C)cc2)ccc1S(=O)(=O)F | 15.1 | > 100 | 0.18 | > 100 | 20.9 | > 100 µM | 0.737 | > 100 | 0.148 | > 100 µM | 0.269 | > 100 | 12.2 | > 100 µM | 0.151 | > 100 µM | 0.447 | > 100 | 0.464 | > 100 µM
COc1ccc(/C=N/NC(=O)O)cc1 |  | > 100 |  | > 100 |  | > 100 µM |  | > 100 |  | > 100 µM |  | > 100 |  | > 100 µM |  | > 100 µM |  | > 100 |  | > 100 µM
CC(NC(=O)C(N)Cc1ccccc1)C(=O)NC(Cc1ccc(O)cc1)C(=O)NC(Cc1c[nH]c2ccccc12)C(=O)NC(CCCCN)C(=O)NC(C(=O)NC(C)C(=O)NC(Cc1ccc2ccccc2c1)C(N)=O)C(C)C (stereo not drawn) (H-FAYWKVA[2Nal]-NH2; configuration not given here) | > 100 | > 100 |  | > 12.5 | 23.1 | > 12.5 µM and 53.5 µM |  | > 12.5 | 25.1 | > 12.5 µM and 67 µM |  | 71.1 | 18.8 | > 12.5 µM and 43.2 µM | 20.7 | > 12.5 µM and 48.7 µM | > 100 | > 100 | 16.3 | > 12.5 µM and 30.4 µM
Cc1cc(N2CCN(C)CC2)nc(NC2CCCC(Nc3ccnc4cc(Cl)ccc34)C2)n1 (stereo not drawn) | 2.1 | 3.93 | 1.8 | 3.37 | 2.22 | 6.03 µM | 1.7 | 3.46 | 2.02 | 4.33 µM | 3.42 | 13.2 | 2.25 | 5.75 µM | 3.14 | 11 µM | 3.09 | 12.2 | 1.68 | 4.95 µM
COc1cc2cc(C(=O)O)[nH]c2cc1OCc1ccccc1 | 89.4 | > 100 | > 100 | > 100 | > 100 | > 100 µM | > 100 | > 100 | > 100 | > 100 µM | > 100 | > 100 | > 100 | > 100 µM |  |  | > 100 | > 100 | > 100 | > 100 µM
